Reference: patent publication US5583115A, “Dialkyltiacumicin compounds” (Abbott Laboratories, priority 1995, dated 1996)
Values after ≈ are worked out from the molar mass of the structure shown.

Key:
Bacteriodes fragilis = experiment: MIC agar dilution, anaerobic bacteria; assay type: cell-based
P. cepacia = experiment: MIC agar dilution, aerobic and facultative bacteria; conditions: Culture # 1684
Propionibacterium acnes = experiment: MIC agar dilution, anaerobic bacteria; assay type: cell-based; conditions: Culture # 1775
Candida albicans = experiment: MIC agar dilution, aerobic and facultative bacteria; conditions: Culture # 3622
Clostridium perfringens = experiment: microbe, parasite or virus in culture; assay type: cell-based
Klebsiella pneumoniae = experiment: MIC agar dilution, aerobic and facultative bacteria; conditions: Culture # 2518
E. coli = experiment: as above; assay type: cell-based
Fusobacterium species = experiment: MIC agar dilution, anaerobic bacteria; assay type: cell-based; conditions: Culture # 1770
[1] = tested on: Peptostreptococcus asaccharolyticus; experiment: MIC agar dilution, anaerobic bacteria; assay type: cell-based; conditions: Culture # 1777
Enterococcus faecium = experiment: MIC agar dilution, aerobic and facultative bacteria; conditions: Culture # 1668
C. difficile = experiment: MIC agar dilution, anaerobic bacteria; assay type: cell-based
C. ramosum = experiment: MIC agar dilution, anaerobic bacteria; assay type: cell-based; conditions: Culture # 2482
B. disiens = experiment: MIC agar dilution, anaerobic bacteria; assay type: cell-based; conditions: Culture # 1763
Providencia stuartii = experiment: MIC agar dilution, aerobic and facultative bacteria; conditions: Culture # 1831
S. pyogenes = experiment: as above
[2] = tested on: anaerobic pathogens, in particular Clostridium species; experiment: In vitro activity against anaerobic pathogens, Wilkins-Chalgren agar; assay type: cell-based; conditions: MIC, Table 2
Text: It has now been established that novel antimicrobial agents may be obtained by chemical modification of tiacumicins, which are antibiotics isolated from the fermentation broth and mycelium of Dactylosporangium aurantiacum subsp. hamdenensis subsp. nov. Tiacumicin antibiotics are described in U.S. Pat. No. 4,918,174 (issued Apr. 17, 1990 and incorporated herein by reference), and comprise the compounds tiacumicin A, tiacumicin B, tiacumicin C, tiacumicin D, tiacumicin E and tiacumicin F. The compounds of the present invention, which are derivatives of the above tiacumicins, are found to have in vitro activity against a variety of bacterial pathogens and in particular against Clostridium when evaluated in an assay utilizing Wilkins-Chalgren agar in anaerobic conditions. It is therefore expected that these compounds will be useful in the treatment of bacterial infections in mammals, and in particular in the treatment of certain instances of colitis.

Fusobacterium nucleatum = experiment: MIC agar dilution, anaerobic bacteria; assay type: cell-based; conditions: Culture # 2478
Clostridium difficile = experiment: In vivo hamster model of pseudomembranous Clostridium difficile induced colitis; conditions: for % Weight change, Day 22 / % Mortality: days 8-14; for % Mortality: expiring by day 20
Experimental: (Suppression of normal gastrointestinal bacteria by the ciprofloxacin permitted the drug-resistant C. difficile to predominate.) Five additional hamsters were segregated as a noninfected control group.
The infected animals were divided into three groups comprising (a) 10 untreated animals; (b) 15 vancomycin-treated animals (5 each at 20, 10 and 1 mg/kg/day orally on days 8-14); and (c) 10 animals treated with the compound of Example 2 (5 each at 10 and 1 mg/kg/day on days 8-14). The subject animals were monitored for (a) body weight (infected hamsters lose significant body mass), and (b) mortality (percent expiring by day 20).

Mycobacterium smegmatis = experiment: MIC agar dilution, aerobic and facultative bacteria; conditions: Culture # 5171
P. anaerobius = experiment: MIC agar dilution, anaerobic bacteria; assay type: cell-based; conditions: Culture # 1780
Staphylococcus aureus = experiment: MIC agar dilution, aerobic and facultative bacteria
Streptococcus agalactiae = experiment: as above; conditions: Culture # 1670
Streptococcus bovis = experiment: as above; conditions: Culture # 1699
Enterobacter aerogenes = experiment: as above; conditions: Culture # 1677
Nocardia asteroides = experiment: as above; conditions: Culture # 5173
Pseudomonas aeruginosa = experiment: as above
Veillonella parvula = experiment: MIC agar dilution, anaerobic bacteria; assay type: cell-based; conditions: Culture # 2479
[3] = tested on: Acinetobacter calcoaceticus; experiment: MIC agar dilution, aerobic and facultative bacteria; conditions: Culture # 1845
B. bivius = experiment: MIC agar dilution, anaerobic bacteria; assay type: cell-based; conditions: Culture # 2483

SMILES: CCc1c(Cl)c(OC)c(Cl)c(OC)c1C(=O)OC1C(C)OC(OCC2=CC=CCC(O)C(C)=CC(CC)C(OC3OC(C)(C)C(OC(=O)C(C)C)C(O)C3O)C(C)=CC(C)=CCC(C(C)O)OC2=O)C(OC)C1O (stereo not drawn) [Example 2, 3"', 5"'-Di-O-methyltiacumicin B]
- MIC (Bacteriodes fragilis; Culture # 1756, Wilkins-Chalgren agar, 37° C., 48 hours): > 2 µg/mL
- MIC (Bacteriodes fragilis; Culture # 1757): > 2 µg/mL
- MIC (Bacteriodes fragilis; Culture # 1758): > 2 µg/mL
- MIC (Bacteriodes fragilis; Culture # 1999): > 2 µg/mL
- MIC (P. cepacia): > 100 µg/mL
- MIC (Propionibacterium acnes): > 2 µg/mL
- MIC (Candida albicans): > 100 µg/mL
- MIC (Clostridium perfringens; Culture # 1771): 0.06 µg/mL (≈ 0.0552 µM)
- MIC (Clostridium perfringens; Culture # 1772): 0.06 µg/mL (≈ 0.0552 µM)
- MIC (Clostridium perfringens; Culture # 1773): 0.06 µg/mL (≈ 0.0552 µM)
- MIC (Klebsiella pneumoniae): > 100 µg/mL
- MIC (E. coli; DC-2, Culture # 1674): > 100 µg/mL
- MIC (E. coli; H560, Culture # 1675): > 100 µg/mL
- MIC (E. coli; Juhl, Culture # 1673): > 100 µg/mL
- MIC (E. coli; KNK437, Culture # 1676): > 100 µg/mL
- MIC (E. coli; SS, Culture # 2489): > 100 µg/mL
- MIC (Fusobacterium species): > 2 µg/mL
- MIC [1]: > 2 µg/mL
- MIC (Enterococcus faecium): > 100 µg/mL
- MIC (C. difficile; Culture # 1496): 0.25 µg/mL (≈ 0.23 µM)
- MIC (C. difficile; Culture # 1497): 0.5 µg/mL (≈ 0.46 µM)
- MIC (C. difficile; Culture # 1774): 0.25 µg/mL (≈ 0.23 µM)
- MIC (C. difficile; Culture # 2025): 0.5 µg/mL (≈ 0.46 µM)
- MIC (C. difficile; Culture # 2480): 0.25 µg/mL (≈ 0.23 µM)
- MIC (C. difficile; Culture # 2528): 0.5 µg/mL (≈ 0.46 µM)
- MIC (C. difficile; Culture # 2529): 0.5 µg/mL (≈ 0.46 µM)
- MIC (C. ramosum): > 2 µg/mL
- MIC (B. disiens): > 2 µg/mL
- MIC (Providencia stuartii): > 100 µg/mL
- MIC (S. pyogenes; Culture # 1671): > 100 µg/mL
- MIC (S. pyogenes; const., Culture # 1672): 25 µg/mL (≈ 23 µM)
- MIC (S. pyogenes; inducible, Culture # 2548): 25 µg/mL (≈ 23 µM)
- activity against anaerobic pathogens [2]: substantial activity against anaerobic pathogens and in particular against Clostridium species
- MIC (Fusobacterium nucleatum): > 2 µg/mL
- body mass (Clostridium difficile; 1 mg/kg): maintained body mass closest to that of non-infected controls
- % Weight change, Day 22 (Clostridium difficile; 1 mg/kg/day): 154%
- % Mortality (Clostridium difficile; 1 mg/kg/day): 20%
- % Weight change, Day 22 (Clostridium difficile; 10 mg/kg/day): 140%
- % Mortality (Clostridium difficile; 10 mg/kg/day): 60%
- treatment of antibiotic-associated colitis (Clostridium difficile; Table 3): effectively treat an antibiotic-associated colitis
- survival rate (Clostridium difficile; versus untreated infected controls or vancomycin): higher survival rate than either untreated infected controls or in hamsters treated with vancomycin
- MIC (Mycobacterium smegmatis): 1.56 µg/mL (≈ 1.44 µM)
- MIC (P. anaerobius): > 2 µg/mL
- MIC (Staphylococcus aureus; Culture # 1662, brain heart infusion agar, 37° C., 20 hours): 100 µg/mL (≈ 92.1 µM)
- MIC (Staphylococcus aureus; Culture # 1664): 50 µg/mL (≈ 46 µM)
- MIC (Staphylococcus aureus; Culture # 1690): 100 µg/mL (≈ 92.1 µM)
- MIC (Staphylococcus aureus; Culture # 2124): > 100 µg/mL
- MIC (Staphylococcus aureus; Culture # 2130): > 100 µg/mL
- MIC (Staphylococcus aureus; Culture # 2498): > 100 µg/mL
- MIC (Staphylococcus aureus; cipro res., Culture # 3384): 100 µg/mL (≈ 92.1 µM)
- MIC (Streptococcus agalactiae): > 100 µg/mL
- MIC (Streptococcus bovis): > 100 µg/mL
- MIC (Enterobacter aerogenes): > 100 µg/mL
- MIC (Nocardia asteroides): 0.39 µg/mL (≈ 0.359 µM)
- MIC (Pseudomonas aeruginosa; Culture # 1679): > 100 µg/mL
- MIC (Pseudomonas aeruginosa; Culture # 1680): > 100 µg/mL
- MIC (Pseudomonas aeruginosa; Culture # 1681): > 100 µg/mL
- MIC (Pseudomonas aeruginosa; Culture # 1682): 100 µg/mL (≈ 92.1 µM)
- MIC (Pseudomonas aeruginosa; cipro R, Culture # 1919): > 100 µg/mL
- MIC (Pseudomonas aeruginosa; cipro R, Culture # 1920): > 100 µg/mL
- MIC (Veillonella parvula): > 2 µg/mL
- MIC [3]: > 100 µg/mL
- MIC (B. bivius): > 2 µg/mL
